{
  "source": "paper PMC5295395",
  "about": "“Inhibition of PlexA1-mediated brain tumor growth and tumor-associated angiogenesis using a transmembrane domain targeting peptide” (Oncotarget, 2016)",
  "key": {"NRP1 TMD": {"test_system": "NRP1 TMD", "test": "surface plasmon resonance (SPR, Biacore) with NRP1 TMD", "type": "binding", "details": "Biacore 2000, 20°C, streptavidin CM5 chip, 10 mM HEPES pH 7.4, 150 mM NaCl, 0.005% P20, 3 mM LDAO, flow 5 μl/min", "procedure": "A surface plasmon resonance (SPR, Biacore) analysis was also conducted with a synthetic biotinylated PlexA1 peptide immobilized on the chip. […] Due to the high hydrophobic nature and difficulty to produce TMD peptides we only performed this experiment with TMD peptides for which we had experience of successful synthesis. […]\nassigned to the “highest Plxna1” group and conversely (Abcam, ab32960-100) was added to the sections in those with a Plxna1 expression below the median to the blocking solution at 4°C overnight at a dilution of 1/100.\n“lowest Plxna1” group. […]\nFor the “TCGA dataset” [50, 51], data were The tissue was rinsed with PBS (3 × 5 minutes) and downloaded from the TCGA data portal (https://tcga- then the endogenous peroxidases were blocked with 1% data.nci.nih.gov/tcga/tcgaHome2.jsp; NCI, USA). RMA H2O2 solution (Sigma, #H1009) in methanol solution normalized gene expression profiles measured with during 20 minutes. […]\nFactor (recombinant human) 0.1 ng/ml, Basic Fibroblast RNA was treated with DNase I (Invitrogen) and reverse Growth Factor (recombinant human) 1 ng/ml, Heparin 90 transcribed using the High Capacity cDNA RT Kit μg/ml, Hydrocortisone 1 μg / ml. […] Samples were analyzed using […]"}, "[1]": {"test_system": "tumor-associated blood vessels (CD31)", "test": "CD31 immunostaining of U118MG-Luc xenograft tumor sections", "type": "in vivo, mouse", "details": "vs control; p = 0.0436, Mann Whitney", "procedure": "To address the biological consequences of MTP-PlexA1-mediated inhibition of PlexA1 we used the U118MG-Luc glioma cell line genetically engineered to express the luciferase reporter gene. […] Cells were then grafted subcutaneously and tumor growth was monitored every 5 days for a total period of 20 days. […] The quantitative analysis of the cumulated luminescent signal acquired all along the protocol confirmed the strong reduction of tumor development translating into a marked 75% reduction of the averaged luminescent signal at the end point (Figure 6C). […] In order to clarify the mechanism by which MTP-PlexA1 is exerting tumor growth inhibition we collected tumors and analyzed them histologically.\n(B) Representative photographs illustrating the kinetic of tumor growth over 20 days in the two experimental groups. […] (D) Waterfall plot of best response representing the percent change in tumor volume of individual treated animals (grey bars, n = 10) compared to the average tumor volume increased determined in the control group (dark bars, n = 10). […] (F) Representative microphotographs and related quantification of PH3 positive cells in tumor slices (G) Representative microphotographs and related quantification of CD31 positive regions in tumor slices (% CD31 per μm² of tumors)."}},
  "data": [
    {"sequence": "TLPAIVGIGGGGGLLLLVIVAVLIAYKRK [MTP-PlexA1, synthetic transmembrane peptide mimicking the TMD of PlexA1]", "values": [
      {"measurement": "interaction of immobilized biotinylated PlexA1 TMD peptide with NRP1", "setting": "NRP1 TMD", "value": "significantly interacted with NRP1"},
      {"measurement": "reduction of tumor-associated blood vessel density (CD31)", "setting": "[1]", "value": 11.4, "unit": "%"}
    ]}
  ]
}
